Experimental data as given in patent publication US20160115540A1, “PRODRUGS AND DRUGS” (Biogen MA Inc., priority 2013, published 2016).
Structures can show the parent of a compound that is named as a salt.

System: blood, cerebellum, spinal cord
Assay: Transcriptional profiling, chronic dosing, EAE mice: blood, cerebellum, spinal cord
Assay type: in vivo
Details: for Number of differentially expressed genes identified: Cerebellum / Number of differentially expressed genes identified: Spinal Cord / Number of differentially expressed genes identified: Whole blood: EAE, Chronic Dosing
Experimental: 2011 March 134(Pt3): 678-92. […] FIG. 17 depicts exemplary immunophenotyping panels used to analyze various immune cell populations (e.g., T cells, T regulatory cells, NK cells, B cells, myeloid cells). […] Animals were exposed to CO2 and whole blood collected via cardiac puncture. Two 100 μl aliquots of whole blood were collected in 1.5 mL microcentrifuge tubes and snap frozen in liquid nitrogen. Peripheral (liver, spleen, kidney and jejunum) and CNS brain (cerebellum, hippocampus, striatum and cortex) tissues were harvested and snap frozen in liquid nitrogen, with special care taken to collect tissues of similar size and from the same location. All samples were stored at -80° C. until RNA extraction was conducted. For RNA preparation, frozen tissues were placed in 2 mL RNAse-free 96-well blocks with 1.5 mL QIAzol Lysis Reagent (QIAgen) and a 3.2 mm stainless steel bead (BioSpec Products, Bartlesville, Okla.). Tissues were disrupted for four cycles of 45 seconds in a Mini-Beadbeater (Biospec Products). RNA was extracted in chloroform and the aqueous phase was mixed with an equal volume of 70% ethanol. Extracted RNA was applied to RNeasy 96 plates and purified by the spin method according to the manufacturer's protocol (RNeasy 96 Universal Tissue Protocol, QIAgen, Hilden Germany). 50 ul of snap frozen mouse blood was re-suspended in lysis buffer with proteinase K and arrayed into deep-well plates for automated RNA extraction. RNA extractions were completed on […] (Beckman Coulter, Indianapolis, Ind.) using Agencourt RNAdvance Blood kit (Part number A35604) according to the manufacturer's specifications. RNA integrity was assessed using the HT RNA reagent kit (Part number 760410, Caliper Life Sciences, Hopkinton, Mass.) using a LabChip GX (PerkinElmer, Waltham, Mass.). RNA samples with a RQS score of >8.0 were considered high quality for downstream microarray processing. […] Washing and staining of the hybridized arrays were completed as described in the GeneChip Expression analysis technical manual for HT plate arrays using the Genechip® Array Station (Affymetrix, Santa Clara, Calif.) with modifications as described in […] et al. The processed GeneChip® plate arrays were scanned using GeneTitan scanner (Affymetrix, Santa Clara, Calif.). Affymetrix scans were subject to quality control (QC) measures. These tests included a visual inspection of the distribution of raw signal intensities and an assessment of RNA degradation, relative log expression (RLE), and normalized unscaled standard error (NUSE). All sample scans that passed these QC metrics were included in the analysis. […] Nucleic Acids Res 2003; 31:e15; Li C, et al. Genome Biol 2001; 2:[…]0032). […] Stat Appl Genet Mol Biol 2004; 3:Article3). […] Springer Science+Business Media 2005).

[1] = 90 mpk MMF-vs-Vehicle, 7 h after last dosing
[2] = 90 mpk MMF-vs-Vehicle, 12 h after last dosing
[3] = spinal cord, 100MMF-vs-Veh, 7 h
[4] = spinal cord, 100MMF-vs-Veh, 12 h
[5] = tissue not given, 100MMF-vs-Veh, 12 h
[6] = 100 mpk DMF-vs-90 mpk MMF, 7 h after last dosing
[7] = 100 mpk DMF-vs-90 mpk MMF, 12 h after last dosing
[8] = 100 mpk DMF-vs-Vehicle, 7 h after last dosing
[9] = 100 mpk DMF-vs-Vehicle, 12 h after last dosing
[10] = spinal cord, 100DMF-vs-90MMF, 7 h
[11] = spinal cord, 100DMF-vs-90MMF, 12 h
[12] = spinal cord, 100DMF-vs-Veh, 7 h
[13] = spinal cord, 100DMF-vs-Veh, 12 h
[14] = tissue not given, 100DMF-vs-90MMF, 7 h
[15] = tissue not given, 100DMF-vs-90MMF, 12 h

SMILES: COC(=O)/C=C/C(=O)O [MMF, monomethyl fumarate]
- Number of differentially expressed genes identified: Cerebellum [1]: 2
- Number of differentially expressed genes identified: Spinal Cord [1]: 7
- Number of differentially expressed genes identified: Whole blood [1]: 19
- Number of differentially expressed genes identified: Cerebellum [2]: 3
- Number of differentially expressed genes identified: Spinal Cord [2]: 2
- Number of differentially expressed genes identified: Whole blood [2]: 7
- FC Agxt2l1 (1431406_PM_at) [3]: 1.78
- FC Cxcl11 (1419697_PM_at) [3]: −3.36
- FC Ddx58 (1436562_PM_at) [3]: −1.67
- FC Ifi44 (1423555_PM_a_at) [3]: −1.99
- FC Ifit1 (1450783_PM_at) [3]: −1.67
- FC Plac8 (1451335_PM_at) [3]: −2.04
- FC Tor3a (1450454_PM_at) [3]: −1.57
- FC 1439946_PM_at (no gene symbol) [4]: −1.62
- FC Dbp (1418174_PM_at) [4]: −1.58
- FC 1459557_PM_at (no gene symbol) (tissue not given, 100MMF-vs-Veh, 7 h): 2.30
- FC 1442025_PM_a_at (no gene symbol) [5]: −1.84
- FC 1442026_PM_at (no gene symbol) [5]: −1.91
- FC 4933423P22Rik (1454223_PM_at) [5]: 1.53

SMILES: COC(=O)/C=C/C(=O)OC [DMF, dimethyl fumarate]
- Number of differentially expressed genes identified: Cerebellum [6]: 2
- Number of differentially expressed genes identified: Spinal Cord [6]: 2
- Number of differentially expressed genes identified: Whole blood [6]: 0
- Number of differentially expressed genes identified: Cerebellum [7]: 3
- Number of differentially expressed genes identified: Spinal Cord [7]: 40
- Number of differentially expressed genes identified: Whole blood [7]: 0
- Number of differentially expressed genes identified: Cerebellum [8]: 0
- Number of differentially expressed genes identified: Spinal Cord [8]: 3
- Number of differentially expressed genes identified: Whole blood [8]: 8
- Number of differentially expressed genes identified: Cerebellum [9]: 0
- Number of differentially expressed genes identified: Spinal Cord [9]: 3
- Number of differentially expressed genes identified: Whole blood [9]: 8
- FC 2900055J20Rik (1430675_PM_at) [10]: −1.58
- FC LOC100047123 (1446154_PM_at) [10]: −1.56
- FC 1423020_PM_at (no gene symbol) [11]: 1.59
- FC 1440425_PM_at (no gene symbol) [11]: 1.57
- FC 1440449_PM_at (no gene symbol) [11]: 1.61
- FC 1441606_PM_at (no gene symbol) [11]: 1.57
- FC 1442650_PM_at (no gene symbol) [11]: 1.92
- FC 1442813_PM_at (no gene symbol) [11]: 2.21
- FC 1443212_PM_at (no gene symbol) [11]: 1.82
- FC 1443237_PM_at (no gene symbol) [11]: 1.59
- FC 1444001_PM_at (no gene symbol) [11]: 1.58
- FC 1446481_PM_at (no gene symbol) [11]: 1.59
- FC 1447354_PM_at (no gene symbol) [11]: 1.54
- FC 1458147_PM_at (no gene symbol) [11]: 1.60
- FC 1458697_PM_at (no gene symbol) [11]: 1.72
- FC 1459235_PM_at (no gene symbol) [11]: 1.65
- FC 1459288_PM_at (no gene symbol) [11]: 1.66
- FC 1459310_PM_at (no gene symbol) [11]: 1.87
- FC 2410089E03Rik 1443422_PM_at [11]: 1.55
- FC 2410089E03Rik (1458493_PM_a_at) [11]: 2.00
- FC 4933439F18Rik (1427068_PM_x_at) [11]: 1.52
- FC 6330436F06Rik (1433015_PM_at) [11]: 1.52
- FC 9330156P08Rik (1458073_PM_at) [11]: 2.08
- FC A230006K03Rik (1432408_PM_a_at) [11]: 1.59
- FC A730034C02 /// Mtap2 (1421327_PM_at) [11]: 1.69
- FC B230112I24Rik (1433187_PM_at) [11]: 1.64
- FC BC066028 (1439850_PM_at) [11]: 1.56
- FC Cdk14 (1453956_PM_a_at) [11]: 1.76
- FC Dnajc27 (1434946_PM_at) [11]: 1.85
- FC Dnm3 (1446265_PM_at) [11]: 1.54
- FC Fgf14 (1449958_PM_a_at) [11]: 1.76
- FC Flnb (1445534_PM_at) [11]: 1.55
- FC Gzma (1417898_PM_a_at) [11]: −5.32
- FC Htr2c (1450477_PM_at) [11]: 1.65
- FC Kif22 (1423813_PM_at) [11]: −1.68
- FC Per3 (1442243_PM_at) [11]: 1.54
- FC Pole (1448650_PM_a_at) [11]: −1.60
- FC Rgs7bp (1437559_PM_at) [11]: 1.50
- FC Sema6d (1446536_PM_at) [11]: 1.57
- FC Sgol1 (1418919_PM_at) [11]: −1.61
- FC Slc25a27 (1440090_PM_at) [11]: 1.56
- FC Zfp398 (1456639_PM_at) [11]: 1.57
- FC Aox1 (1419435_PM_at) [12]: 1.68
- FC Rnf128 (1418318_PM_at) [12]: 1.72
- FC Rnf128 (1449036_PM_at) [12]: 1.60
- FC 1446104_PM_at (no gene symbol) [13]: 1.57
- FC Gzma (1417898_PM_a_at) [13]: −4.64
- FC Kif22 (1423813_PM_at) [13]: −1.62
- FC 1459289_PM_at (no gene symbol) [14]: 1.52
- FC Nr4a2 (1455034_PM_at) [14]: −1.51
- FC 1444901_PM_at (no gene symbol) [15]: −1.68
- FC Cyp4f16 /// Gm9705 (1430172_PM_a_at) [15]: 1.54
- FC Nr4a3 (1438796_PM_at) [15]: −1.82
